Source: PMC10492809, “A Bischler-Napieralski and homo-Mannich sequence enables diversified syntheses of sarpagine alkaloids and analogues” (Nature Communications, 2023)
“And” between values parts separate entries of the source, which are not always exact repeats. Equal values may be shown once. Read-outs that look alike come from different tables or passages of the source.

Tests used:
Format in all cases: cell-based
[1] = system: MIA PaCa-2; experiment: MTT cell viability assay, MIA PaCa-2
Description: (§1) All cell lines were cultured at 37 °C with 5% CO2 in a humidified incubator. HeLa cells were grown in MEM (Gibco) supplemented with 10% fetal bovine serum (FBS, Hyclone) and 1% penicillin/streptomycin (Gibco). MIA PaCa-2, MDA-MB-231, A549, MCF-7, A375 and BEAS-2B cells were grown in DMEM (Gibco) supplemented with 10% FBS and 1% penicillin/streptomycin. CT26, and HCT116 cells were grown in RPMI-1640 supplemented with 10% FBS and 1% penicillin/streptomycin. All cell lines were purchased from the National Collection of Authenticated Cell Cultures (China).
(§2) The antiproliferative activities of the prepared compounds against tested cell lines were evaluated using a standard (MTT)-based colorimetric assay. Cells were plated at a density of 3000 cells/well in 96-well plates and allowed to adhere overnight. Then cells were treated with varying concentrations of synthesized compounds for 72 h. At the end of treatment, 20 μL of thiazolyl blue tetrazolium bromide (MTT) solution (5 mg/mL) was added to each well. Cells were incubated for an additional 4 h at 37 °C and then the medium was removed and replaced with 200 μL of DMSO. The absorbance (OD490) was read on a microplate reader (SpectraMax i3x, Molecular Devices, US). In all experiments, three replicate wells were used for each drug concentration. Each assay was performed at least three times. The IC50 values were calculated by GraphPad Prism 9, which were the mean values derived from three independent experiments.

[2] = system: MDA-MB-231; experiment: MTT cell viability assay, MDA-MB-231
Description: as §1, §2

[3] = system: Hela; experiment: MTT cell viability assay, Hela
Description: as §1, §2

[4] = system: A549; experiment: MTT cell viability assay, A549
Description: as §1, §2

[5] = system: MCF-7; experiment: MTT cell viability assay, MCF-7
Description: as §1, §2

[6] = system: CT26; experiment: MTT cell viability assay, CT26
Description: as §1, §2

[7] = system: HCT 116; experiment: MTT cell viability assay, HCT 116
Description: as §1, §2

[8] = system: A375; experiment: MTT cell viability assay, A375
Description: as §1, §2

[9] = system: lung epithelial BEAS-2B cells; experiment: MTT cytotoxicity towards normal cells, BEAS-2B; details: for CC50: MTT, 72 h, cytotoxicity towards normal cells, mean of at least three independent experiments; for IC50: source data sheet, single values of three experiments
Description: as §1, §2

[10] = MTT cytotoxicity towards normal cells, BEAS-2B; details: human; for IC50 at 72 h: BEAS-2B lung epithelial cells (normal cells), source data sheet, single values of three experiments; for CC50 at 72 h: BEAS-2B lung epithelial cells, MTT, cytotoxicity towards normal cells, mean of at least three independent experiments
Description: as §1, §2

[11] = MTT, 72 h, mean of at least three independent experiments, read-out: IC50 MIA PaCa-2
[12] = source data sheet, single values of three experiments, read-out: MTT IC50 MIA PaCa-2
[13] = MTT, 72 h, mean of at least three independent experiments, read-out: IC50 MDA-MB-231
[14] = source data sheet, single values of three experiments, read-out: MTT IC50 MDA-MB-231
[15] = MTT, 72 h, mean of at least three independent experiments, read-out: IC50 Hela
[16] = source data sheet, single values of three experiments, read-out: MTT IC50 Hela
[17] = MTT, 72 h, mean of at least three independent experiments, read-out: IC50 A549
[18] = source data sheet, single values of three experiments, read-out: MTT IC50 A549
[19] = MTT, 72 h, mean of at least three independent experiments, read-out: IC50 MCF-7
[20] = source data sheet, single values of three experiments, read-out: MTT IC50 MCF-7
[21] = MTT, 72 h, mean of at least three independent experiments, read-out: IC50 CT26
[22] = source data sheet, single values of three experiments, read-out: MTT IC50 CT-26
[23] = MTT, 72 h, mean of at least three independent experiments, read-out: IC50 HCT 116
[24] = source data sheet, single values of three experiments, read-out: MTT IC50 HCT-116
[25] = MTT, 72 h, mean of at least three independent experiments, read-out: IC50 A375
[26] = source data sheet, single values of three experiments, read-out: MTT IC50 A375
[27] = Homo sapiens, MIA PaCa-2, 72 h, MTT, 72 h, mean of at least three independent experiments, read-out: IC50 MIA PaCa-2
[28] = Homo sapiens, MIA PaCa-2, source data sheet, single values of three experiments, read-out: MTT IC50 MIA PaCa-2
[29] = Homo sapiens, MDA-MB-231, 72 h, MTT, 72 h, mean of at least three independent experiments, read-out: IC50 MDA-MB-231
[30] = Homo sapiens, MDA-MB-231, source data sheet, single values of three experiments, read-out: MTT IC50 MDA-MB-231
[31] = Homo sapiens, HeLa, 72 h, MTT, 72 h, mean of at least three independent experiments, read-out: IC50 Hela
[32] = Homo sapiens, HeLa, source data sheet, single values of three experiments, read-out: MTT IC50 Hela
[33] = Homo sapiens, A549, 72 h, MTT, 72 h, mean of at least three independent experiments, read-out: IC50 A549
[34] = Homo sapiens, A549, source data sheet, single values of three experiments, read-out: MTT IC50 A549
[35] = Homo sapiens, MCF7, 72 h, MTT, 72 h, mean of at least three independent experiments, read-out: IC50 MCF-7
[36] = Homo sapiens, MCF7, source data sheet, single values of three experiments, read-out: MTT IC50 MCF-7
[37] = Mus musculus, CT26, 72 h, MTT, 72 h, mean of at least three independent experiments, read-out: IC50 CT26
[38] = Mus musculus, CT26, source data sheet, single values of three experiments, read-out: MTT IC50 CT-26
[39] = Homo sapiens, HCT-116, 72 h, MTT, 72 h, mean of at least three independent experiments, read-out: IC50 HCT 116
[40] = Homo sapiens, HCT-116, source data sheet, single values of three experiments, read-out: MTT IC50 HCT-116
[41] = Homo sapiens, A-375, 72 h, MTT, 72 h, mean of at least three independent experiments, read-out: IC50 A375
[42] = Homo sapiens, A-375, source data sheet, single values of three experiments, read-out: MTT IC50 A375

Row | Compound | IC50 [1, 11] [µM] | IC50 [1, 12] | IC50 [2, 13] [µM] | IC50 [2, 14] | IC50 [3, 15] [µM] | IC50 [3, 16] | IC50 [4, 17] [µM] | IC50 [4, 18] | IC50 [5, 19] [µM] | IC50 [5, 20] | IC50 [6, 21] [µM] | IC50 [6, 22] | IC50 [7, 23] [µM] | IC50 [7, 24] | IC50 [8, 25] [µM] | IC50 [8, 26] | CC50 [9] [µM] | IC50 [9] [µM] | IC50 [1, 27] [µM] | IC50 [1, 28] [µM] | also measured
1 | C=C=C1CN2[C@H]3C[C@H]1[C@H](C(=O)C=C)[C@@H]2Cc1c3n(S(=O)(=O)c2ccc(C)cc2)c2ccccc12 [Compound 15aq] | 20.2 | 22.2 µM and 19.5 µM and 18.9 µM | 8.12 | 10.1 µM and 8.05 µM and 6.22 µM | 10.9 | 12.4 µM and 9.52 µM and 10.6 µM | 19.2 | 22.2 µM and 18.2 µM and 17.1 µM | 24.8 | 24.3 µM and 27.2 µM and 22.8 µM | 15.7 | 15.9 µM and 17.2 µM and 14.1 µM | 10.3 | 12.2 µM and 8.29 µM and 10.3 µM | 7.48 | 9.41 µM and 6.42 µM and 6.61 µM | > 100 | > 100 |  |  | 
2 | C=C=C1CN2[C@H]3C[C@H]1[C@H](C=O)[C@@H]2Cc1c3n(S(=O)(=O)c2ccc(C)cc2)c2cc(Br)ccc12 [Compound 15ag] |  | 21.3 µM and 22 µM |  | 9.71 µM and 8.01 µM |  | 9.92 µM and 7.92 µM |  | 15.3 µM and 19.1 µM |  | 21.6 µM and 18.5 µM |  | 15.8 µM and 16.1 µM |  | 13 µM and 10.3 µM |  | 7.82 µM and 8.4 µM |  |  | 22.8 | 25 | IC50 [2, 29]: 8.59 µM; IC50 [2, 30]: 8.05 µM; IC50 [3, 31]: 9.89 µM; IC50 [3, 32]: 11.8 µM; IC50 [4, 33]: 18.2 µM; IC50 [4, 34]: 20.1 µM; IC50 [5, 35]: 20.9 µM; IC50 [5, 36]: 22.6 µM; IC50 [6, 37]: 17.3 µM; IC50 [6, 38]: 20 µM; IC50 [7, 39]: 12.4 µM; IC50 [7, 40]: 14 µM; IC50 [8, 41]: 8.88 µM; IC50 [8, 42]: 10.4 µM; IC50 at 72 h [10]: > 100 µM; CC50 at 72 h [10]: > 100 µM
3 | C=C=C1CN2[C@H]3C[C@H]1[C@H](C=O)[C@@H]2Cc1c3n(S(=O)(=O)c2ccc(C)cc2)c2cccc(Br)c12 [Compound 15ae] | 40.3 | 39.9 µM and 44.1 µM and 36.8 µM | 25.4 | 25.1 µM and 24.3 µM and 26.8 µM | 32.1 | 34.5 µM and 31.3 µM and 30.4 µM | 42.9 | 44.1 µM and 40.9 µM and 43.6 µM | 32.1 | 35.2 µM and 29.7 µM and 31.4 µM | 30.1 | 32.8 µM and 27.5 µM and 30 µM | 28 | 30 µM and 26.1 µM and 27.9 µM | 20.4 | 23.6 µM and 17.1 µM and 20.5 µM | > 100 | > 100 |  |  | 
4 | C=C=C1CN2[C@H]3C[C@H]1[C@H](C=O)[C@@H]2Cc1c3n(S(=O)(=O)c2ccc(C)cc2)c2ccc(Br)cc12 [Compound 15af] |  | 23 µM and 17 µM |  | 7.05 µM and 4.11 µM |  | 7.52 µM and 8.35 µM |  | 12.5 µM and 14.9 µM |  | 20.1 µM and 19.2 µM |  | 18.8 µM and 14.8 µM |  | 8.41 µM and 9.85 µM |  | 9.41 µM and 6.25 µM |  |  | 20.2 | 20.5 | IC50 [2, 29]: 5.39 µM; IC50 [2, 30]: 5.02 µM; IC50 [3, 31]: 8.56 µM; IC50 [3, 32]: 9.81 µM; IC50 [4, 33]: 14.8 µM; IC50 [4, 34]: 17 µM; IC50 [5, 35]: 18.1 µM; IC50 [5, 36]: 15 µM; IC50 [6, 37]: 15.8 µM; IC50 [6, 38]: 13.8 µM; IC50 [7, 39]: 9.98 µM; IC50 [7, 40]: 11.7 µM; IC50 [8, 41]: 7.51 µM; IC50 [8, 42]: 6.87 µM; IC50 at 72 h [10]: > 100 µM; CC50 at 72 h [10]: > 100 µM
5 | C=C=C1CN2[C@H]3C[C@H]1[C@H](C=O)[C@@H]2Cc1c3n(S(=O)(=O)c2ccc(C)cc2)c2cc(F)ccc12 [Compound 15aj] |  | 22.1 µM and 26 µM |  | 11.5 µM and 14.1 µM |  | 16.8 µM and 18.3 µM |  | 27.4 µM and 22.6 µM |  | 28.1 µM and 29.2 µM |  | 23.2 µM and 26 µM |  | 20.3 µM and 16.2 µM |  | 11.2 µM and 13.4 µM |  |  | 24.1 | 24.2 | IC50 [2, 29]: 14 µM; IC50 [2, 30]: 16.4 µM; IC50 [3, 31]: 18.8 µM; IC50 [3, 32]: 21.3 µM; IC50 [4, 33]: 26.2 µM; IC50 [4, 34]: 28.5 µM; IC50 [5, 35]: 30.3 µM; IC50 [5, 36]: 33.5 µM; IC50 [6, 37]: 24.3 µM; IC50 [6, 38]: 23.7 µM; IC50 [7, 39]: 18.9 µM; IC50 [7, 40]: 20.1 µM; IC50 [8, 41]: 13.4 µM; IC50 [8, 42]: 15.7 µM; IC50 at 72 h [10]: > 100 µM; CC50 at 72 h [10]: > 100 µM
6 | C=C=C1CN2[C@H]3C[C@H]1[C@H](C=O)[C@@H]2Cc1c3n(S(=O)(=O)c2ccc(C)cc2)c2ccccc12 [Compound 15ad] | 12.1 | 12.3 µM and 14 µM and 10.1 µM | 3.07 | 3.01 µM and 3.83 µM and 2.38 µM | 4.37 | 5.18 µM and 4.35 µM and 3.58 µM | 10.4 | 9.24 µM and 12.1 µM and 10 µM | 11.3 | 10.5 µM and 14 µM and 9.22 µM | 8.14 | 10 µM and 7.29 µM and 7.11 µM | 5.25 | 6.65 µM and 4.08 µM and 5.02 µM | 3.57 | 5.01 µM and 2.69 µM and 3.01 µM | > 100 | > 100 |  |  | 
